Values of other authors in US8697660B2, “Compounds and compositions for treating infection” (International Patent Holdings LLC, priority 2011, dated 2014).

Tested on: HIV-1

For Prunellin, the “minimum inhibition concentration against HIV-1 in vitro” value is given as 2.2 µg/mL.
